In patent US10941157B2, “Pesticidal compositions and uses thereof” (Gilead Apollo, LLC, priority 2015, dated 2021):
Converted amounts (≈) assume the structure as drawn.

Legend:
Type in all cases: cell-based
[1] = test system: Phytophthora capsici (Pc); experiment: In vitro pathogen growth inhibition assay, Pc; conditions: 48 h, ≥90% inhibition, 48 hours vs 2% DMSO control, read-out: Compound Concentration (ppm) sufficient for ≥90% inhibition of growth, Pc
In short: (§1)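 Value reported is the compound concentration reaching ≥90% growth inhibition, from OD readings at 24 and 48 h after blank subtraction, confirmed visually. Inoculum was spores diluted in 17% V8 medium, except Rs, using 1.5 mm mycelial plugs in ¼ PDB; actual compound concentration corrected via OD600.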

[2] = test system: Fusarium moniliforme (Fm); experiment: In vitro pathogen growth inhibition assay, Fm; conditions: Fusarium verticillioides; ≥90% inhibition; 48 hours vs 2% DMSO control; read-out: Compound Concentration (ppm) sufficient for ≥90% inhibition of growth, Fm
In short: as §1

Diplodia maydis (Dm) = experiment: In vitro pathogen growth inhibition assay, Dm; conditions: Stenocarpella maydis, 48 h, ≥90% inhibition; 48 hours vs 2% DMSO control; read-out: Compound Concentration (ppm) sufficient for ≥90% inhibition of growth, Dm
In short: as §1

Rhizoctonia solani (Rs) = experiment: In vitro pathogen growth inhibition assay, Rs (mycelial plugs); conditions: Rhizoctonia solani, 48 h, ≥90% inhibition; mycelial plugs; 48 hours vs 2% DMSO control; read-out: Compound Concentration (ppm) sufficient for ≥90% inhibition of growth, Rs
In short: as §1

Septoria tritici (St) = experiment: In vitro pathogen growth inhibition assay, St; conditions: Zymoseptoria tritici, 48 h, ≥90% inhibition; 48 hours vs 2% DMSO control; read-out: Compound Concentration (ppm) sufficient for ≥90% inhibition of growth, St
In short: as §1

[3] = test system: Collectotrichum graminicola (Cg); experiment: In vitro pathogen growth inhibition assay, Cg; conditions: 48 h, ≥90% inhibition; 48 hours vs 2% DMSO control; read-out: Compound Concentration (ppm) sufficient for ≥90% inhibition of growth, Cg
In short: as §1

[4] = test system: Fusarium virguliforme (Fv); experiment: In vitro pathogen growth inhibition assay, Fv; conditions: ≥90% inhibition, 48 hours vs 2% DMSO control, read-out: Compound Concentration (ppm) sufficient for ≥90% inhibition of growth, Fv
In short: as §1

Botrtyis cinerea (Bc) = experiment: In vitro pathogen growth inhibition assay, Bc; conditions: 48 h, ≥90% inhibition; 48 hours vs 2% DMSO control; read-out: Compound Concentration (ppm) sufficient for ≥90% inhibition of growth, Bc
In short: as §1

Row | Compound | IC90 [1] | IC90 [2] | IC90 (Diplodia maydis (Dm)) | IC90 (Rhizoctonia solani (Rs)) | IC90 (Septoria tritici (St)) | IC90 [3] | IC90 [4] | IC90 (Botrtyis cinerea (Bc))
1 | CNC(=O)C(C)(C)n1c(=O)c2c(C)c(-n3nccn3)sc2n(C[C@H](OC(C)C)c2cc(F)ccc2OC)c1=O [Compound I-132] | > 50 µg/mL | 0.4 µg/mL (≈ 0.716 µM) | 10 µg/mL (≈ 17.9 µM) | ≥ 2 µg/mL | > 50 µg/mL | ≥ 2 µg/mL | 0.4 µg/mL (≈ 0.716 µM) | 2 µg/mL (≈ 3.58 µM)
2 | COc1ccc(F)cc1[C@H](Cn1c(=O)n(C(C)(C)C(=O)N2CCCC2)c(=O)c2c(C)c(-n3nccn3)sc21)OC[C@H](C)O [Compound I-133] | 50 µg/mL (≈ 81.3 µM) | 0.4 µg/mL (≈ 0.651 µM) | 2 µg/mL (≈ 3.25 µM) | ≥ 2 µg/mL | ≥ 50 µg/mL | 0.4 µg/mL (≈ 0.651 µM) | 0.4 µg/mL (≈ 0.651 µM) | 2 µg/mL (≈ 3.25 µM)
3 | COc1ccc(F)cc1[C@H](Cn1c(=O)n(C(C)(C)C(=O)NC(C)C)c(=O)c2c(C)c(-n3cccn3)sc21)OC[C@@H](C)O [Compound I-134] | ≥ 10 µg/mL | 0.4 µg/mL (≈ 0.665 µM) | ≥ 2 µg/mL | ≥ 0.4 µg/mL | ≥ 10 µg/mL | 0.4 µg/mL (≈ 0.665 µM) | 2 µg/mL (≈ 3.32 µM) | 2 µg/mL (≈ 3.32 µM)
4 | COc1ccc(F)cc1[C@H](Cn1c(=O)n(C(C)(C)C(=O)N2CCCC2)c(=O)c2c(C)c(-n3cccn3)sc21)OC[C@@H](C)O [Compound I-135] | > 50 µg/mL | 0.4 µg/mL (≈ 0.652 µM) | ≥ 10 µg/mL | ≥ 2 µg/mL | 50 µg/mL (≈ 81.5 µM) | 10 µg/mL (≈ 16.3 µM) | 2 µg/mL (≈ 3.26 µM) | 2 µg/mL (≈ 3.26 µM)
5 | COc1ccc(F)cc1[C@H](Cn1c(=O)n(C(C)(C)C(=O)NC(C)C)c(=O)c2c(C)c(-n3cccn3)sc21)OCC(C)(C)O [Compound I-137] | ≥ 50 µg/mL | 0.4 µg/mL (≈ 0.65 µM) | ≥ 2 µg/mL | ≥ 2 µg/mL | ≥ 10 µg/mL | 2 µg/mL (≈ 3.25 µM) | ≥ 0.4 µg/mL | 2 µg/mL (≈ 3.25 µM)
6 | COc1ccc(F)cc1[C@H](Cn1c(=O)n(C(C)(C)C(=O)N2CCCC2)c(=O)c2c(C)c(-n3cccn3)sc21)OCC(C)(C)O [Compound I-138] | > 50 µg/mL | 0.4 µg/mL (≈ 0.637 µM) | ≥ 10 µg/mL | ≥ 2 µg/mL | > 50 µg/mL | 10 µg/mL (≈ 15.9 µM) | 10 µg/mL (≈ 15.9 µM) | 10 µg/mL (≈ 15.9 µM)
7 | COCCO[C@@H](Cn1c(=O)n([C@H](C)C(=O)N2CCCC2)c(=O)c2c(C)c(-n3nccn3)sc21)c1cc(F)ccc1OC [Compound I-140] | > 50 µg/mL | 0.4 µg/mL (≈ 0.666 µM) | 10 µg/mL (≈ 16.6 µM) | 2 µg/mL (≈ 3.33 µM) | > 50 µg/mL | 10 µg/mL (≈ 16.6 µM) | 0.4 µg/mL (≈ 0.666 µM) | 2 µg/mL (≈ 3.33 µM)
8 | COCCO[C@@H](Cn1c(=O)n(CC(=O)N2CCCC2)c(=O)c2c(C)c(-n3nccn3)sc21)c1cc(F)ccc1OC [Compound I-141] | > 50 µg/mL | 0.4 µg/mL (≈ 0.682 µM) | 2 µg/mL (≈ 3.41 µM) | 10 µg/mL (≈ 17 µM) | > 50 µg/mL | ≥ 2 µg/mL | ≥ 2 µg/mL | 2 µg/mL (≈ 3.41 µM)

The remaining lines, values ahead:

Row | IC90 [1] | IC90 [2] | IC90 (Diplodia maydis (Dm)) | IC90 (Rhizoctonia solani (Rs)) | IC90 (Septoria tritici (St)) | IC90 [3] | IC90 [4] | IC90 (Botrtyis cinerea (Bc)) | Compound
9 | > 50 µg/mL | 0.4 µg/mL (≈ 0.665 µM) | ≥ 10 µg/mL | ≥ 2 µg/mL | > 50 µg/mL | 10 µg/mL (≈ 16.6 µM) | 2 µg/mL (≈ 3.32 µM) | 2 µg/mL (≈ 3.32 µM) | COc1ccc(F)cc1[C@H](Cn1c(=O)n(C(C)(C)C(=O)NC(C)C)c(=O)c2c(C)c(-n3cccn3)sc21)OC[C@H](C)O [Compound I-136]
10 | 50 µg/mL (≈ 83.2 µM) | 0.4 µg/mL (≈ 0.666 µM) | 10 µg/mL (≈ 16.6 µM) | 2 µg/mL (≈ 3.33 µM) | 50 µg/mL (≈ 83.2 µM) | 10 µg/mL (≈ 16.6 µM) | 0.4 µg/mL (≈ 0.666 µM) | 2 µg/mL (≈ 3.33 µM) | COCCO[C@@H](Cn1c(=O)n(C(C)C(=O)N2CCCC2)c(=O)c2c(C)c(-n3nccn3)sc21)c1cc(F)ccc1OC (stereo partly shown) [Compound I-139]
11 | ≥ 50 µg/mL | 0.4 µg/mL (≈ 0.65 µM) | 50 µg/mL (≈ 81.2 µM) | 2 µg/mL (≈ 3.25 µM) | > 50 µg/mL | 10 µg/mL (≈ 16.2 µM) | 0.4 µg/mL (≈ 0.65 µM) | 2 µg/mL (≈ 3.25 µM) | COc1ccc(F)cc1[C@H](Cn1c(=O)n(C(C)(C)C(=O)NC(C)C)c(=O)c2c(C)c(-n3nccn3)sc21)OCCC(N)=O [Compound I-142]
